Source: patent US7981903B2, “2-[2-{phenylamino}-1H-pyrrolo[2,3-D]pyrimidin-4-yl)amino] benzamide derivatives as IGF-1R inhibitors for the treatment of cancer” (GlaxoSmithKline LLC, priority 2007, dated 2011)

Tests used:
[1] = target: T1, NIH-3T3 cells overexpressing human IR (Homo sapiens, UniProt P06213); test: IR cellular autophosphorylation (DELFIA); type: cell-based; details: 2 h compound, insulin 3 ug/ml for 15 minutes, IC50 category
T1 construct: expressed in transfected cells; host or cells: NIH-3T3 (mouse fibroblasts)
Method: NIH-3T3 cells overexpressing human IGF-1R or IR were plated in 96-well plates (10,000 cells/well) in culture media containing 10% fetal bovine serum and incubated at 37° C. in a 5% CO2 incubator. Twenty four hours post-plating, cells were treated with different concentrations of test compounds ranging from 30 uM to 1.5 nM. Two hours after compound addition, cells were stimulated with either human IGF-1 (30 ng/ml) or insulin (3 ug/ml) for 15 minutes. Cell lysates are analyzed for phosphorylated receptors using dissociation enhanced lanthanide fluor-immuno assay (DELFIA) with anti-IGF-1R (MAB391, R&D Systems, Minneapolis, Minn.) or anti-IRβ (sc-711, Santa Cruz Biotechnology, Santa Cruz, Calif.) capture antibody and europium-labeled anti-pTyr antibody (Eu-N1 PT66, Perkin Elmer, Waltham, Mass.) for detection. The fluorescence signal for cells treated with compounds was expressed as percent relative to 100% stimulation (IGF-1 or insulin stimulated signal).

[2] = target: ALK (Homo sapiens, UniProt Q9UM73); test: ALK enzyme assay (HTRF); type: biochemical; details: 0.25 nM ALK, 15.0 μM ATP, values given as pIC50 category
How it was run: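 Final compound range 0.00017 to 10 μM (twelve 1:3 dilutions). Kinase reaction with ATP and biotinylated synthetic peptide runs 120 min at 20° C, stopped with EDTA; phosphotyrosine detected by HTRF after 60 min. Inhibition referenced to DMSO (1%) and EDTA (0.1 M) controls, curve-fitted.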

[3] = target: T2, NIH-3T3 cells overexpressing human IGF-1R (Homo sapiens, UniProt P08069); test: IGF-1R cellular autophosphorylation (DELFIA); type: cell-based
T2 construct: expressed in transfected cells; host or cells: NIH-3T3 (mouse fibroblasts)
How it was run: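 Receptor autophosphorylation measured by DELFIA, capturing IGF-1R or IRβ and detecting with europium anti-pTyr, reported as percent of IGF-1- or insulin-stimulated signal. Compounds (30 uM to 1.5 nM) added 2 h before ligand, then 15 min stimulation (IGF-1 30 ng/ml or insulin 3 ug/ml).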

[4] = target: T3, human IGF1R (hIGF1R) (Homo sapiens, UniProt P08069); test: TR-FRET kinase assay of purified hIGF1R; type: biochemical; details: activated hIGF1R 0.5 nM, 10 μM ATP, values given as pIC50 category, read-out: IGF-1R pIC50 (converted)
T3 construct: containing amino acid residues 957-1367 of human IGF1R; made in house; host or cells: Sf9 cells (baculovirus)

[5] = system: Colo205; test: Inhibition of cell proliferation (CellTiter-Glo or InCell analyzer), Colo205; type: cell-based; details: Homo sapiens, COLO 205, 72 h / 3 days, values given as IC50 category
Method: (§1) Cell proliferation was measured by either CellTiter-Glo (measures cellular ATP level as a surrogate for total cell number) or by InCell analyzer (counts number of nuclei as a measure of cell number).
(§2) For CellTiter-Glo assay, exponentially growing cell lines of different tumor origins, cultured in appropriate media containing 10% fetal bovine serum at 37° C. in a 5% CO2 incubator, were plated at low density (less than 2000cells/well) in 96-well plates. Twenty four hours post-plating, cells were treated with different concentrations of test compounds ranging from 30 uM to 1.5 nM. Several wells were left untreated as a control. Seventy two hours post-treatment, cell numbers were determined using 50-100 ul per well of CellTiter-Glo (Promega #G7573). Plates were incubated at 37° C. for 30 minutes and the chemiluminescent signal was read on the Victor V or Envison 2100 reader.
(§3) For InCell Analyser assay, various cell lines of different tumor origins were grown to 70-80% confluency in appropriate culture media containing 10% fetal bovine serum at 37° C. in a 5% CO2 incubator. On day −1, cells were seeded at 2 densities in 384-well plates and incubated at 37° C. overnight. Stock compound plates were prepared in advance which contained dimethyl sulfoxide (DMSO) alone and a 9-point half-log decreasing dose range of the compound in DMSO. The compound plates were stored at −80° C. and each plate was only thawed once and used. On day 0, the main assay plates received compound or DMSO via a sonic delivery system (ECHO). The highest final concentration of compound of the dose range in the culture plates was 10 uM. These plates were cultured at 37° C. for 3 days. […] On day 3, the compound treated plates were stained and fixed to measure proliferation, apoptosis, and mitotic index using an InCelL1000 analyser. A nuclear stain was used to identify cells in the wells. By counting the number of nuclei, the proliferation index of compound treated groups were calculated as a percentage relative to the DMSO control, which was set to 100%. The IC50 values were calculated using model 205 in ExcelFit.
(§4) IC50 (nM) values for compounds of select examples were categorized by relative inhibition of cell proliferation.

[6] = system: NCI-H929; test: Inhibition of cell proliferation (CellTiter-Glo or InCell analyzer), NCI-H929; type: cell-based; details: Homo sapiens, 72 h / 3 days, values given as IC50 category
Method: as §1, §2, §3, §4

[7] = target: T4, human IR (hIR) (Homo sapiens, UniProt P06213); test: TR-FRET kinase assay of purified hIR; type: biochemical; details: activated hIR 0.5 nM, 10 μM ATP, values given as pIC50 category
T4 construct: containing amino acid residues 979-1382 of human IR; made in house; host or cells: Sf9 cells (baculovirus), same process as hIGF1R
T4 sequence (P06213 979-1382): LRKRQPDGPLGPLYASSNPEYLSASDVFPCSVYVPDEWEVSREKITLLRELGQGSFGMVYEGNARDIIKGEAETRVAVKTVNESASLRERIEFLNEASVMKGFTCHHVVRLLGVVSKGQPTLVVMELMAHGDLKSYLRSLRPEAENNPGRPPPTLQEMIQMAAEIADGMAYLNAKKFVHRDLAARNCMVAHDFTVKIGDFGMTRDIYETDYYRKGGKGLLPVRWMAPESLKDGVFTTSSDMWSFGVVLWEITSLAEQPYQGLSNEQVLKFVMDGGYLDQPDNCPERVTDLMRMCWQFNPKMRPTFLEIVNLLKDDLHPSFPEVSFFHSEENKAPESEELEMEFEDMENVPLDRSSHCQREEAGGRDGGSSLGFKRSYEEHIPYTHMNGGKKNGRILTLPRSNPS

T1 sequence (P06213 28-1382): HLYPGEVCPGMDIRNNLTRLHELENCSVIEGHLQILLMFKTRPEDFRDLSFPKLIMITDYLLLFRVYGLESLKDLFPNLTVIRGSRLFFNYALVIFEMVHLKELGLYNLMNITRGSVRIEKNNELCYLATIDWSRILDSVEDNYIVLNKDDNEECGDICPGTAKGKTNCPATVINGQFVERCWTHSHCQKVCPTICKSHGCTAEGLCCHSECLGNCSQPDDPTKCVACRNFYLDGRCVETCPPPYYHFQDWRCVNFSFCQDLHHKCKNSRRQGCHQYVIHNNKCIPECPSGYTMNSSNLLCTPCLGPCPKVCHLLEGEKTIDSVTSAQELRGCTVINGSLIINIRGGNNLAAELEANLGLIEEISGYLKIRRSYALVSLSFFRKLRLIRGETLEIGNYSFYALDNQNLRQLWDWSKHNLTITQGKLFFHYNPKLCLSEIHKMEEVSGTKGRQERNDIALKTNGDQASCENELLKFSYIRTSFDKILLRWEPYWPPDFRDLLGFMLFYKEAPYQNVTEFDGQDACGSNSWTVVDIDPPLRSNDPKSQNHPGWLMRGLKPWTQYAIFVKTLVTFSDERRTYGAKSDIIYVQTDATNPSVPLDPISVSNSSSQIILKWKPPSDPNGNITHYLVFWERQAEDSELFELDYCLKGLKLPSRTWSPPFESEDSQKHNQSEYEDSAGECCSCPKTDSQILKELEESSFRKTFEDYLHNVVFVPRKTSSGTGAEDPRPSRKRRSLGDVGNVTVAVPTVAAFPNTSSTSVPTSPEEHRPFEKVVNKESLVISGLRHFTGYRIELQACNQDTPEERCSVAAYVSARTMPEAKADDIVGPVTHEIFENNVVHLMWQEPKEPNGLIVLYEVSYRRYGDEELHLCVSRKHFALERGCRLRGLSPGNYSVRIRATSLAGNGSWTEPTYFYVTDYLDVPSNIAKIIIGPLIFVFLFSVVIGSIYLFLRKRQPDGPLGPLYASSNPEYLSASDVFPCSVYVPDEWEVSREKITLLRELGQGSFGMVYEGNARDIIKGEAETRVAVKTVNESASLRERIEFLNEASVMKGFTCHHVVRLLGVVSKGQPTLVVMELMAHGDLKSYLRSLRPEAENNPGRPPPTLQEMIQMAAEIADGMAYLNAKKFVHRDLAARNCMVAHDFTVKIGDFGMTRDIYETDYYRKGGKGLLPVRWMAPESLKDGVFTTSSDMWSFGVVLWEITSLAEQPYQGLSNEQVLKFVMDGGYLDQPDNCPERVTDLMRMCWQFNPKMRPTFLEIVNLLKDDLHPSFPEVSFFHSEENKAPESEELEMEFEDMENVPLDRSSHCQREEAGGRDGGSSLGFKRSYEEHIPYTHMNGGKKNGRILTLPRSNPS
T3 sequence (P08069 957-1367): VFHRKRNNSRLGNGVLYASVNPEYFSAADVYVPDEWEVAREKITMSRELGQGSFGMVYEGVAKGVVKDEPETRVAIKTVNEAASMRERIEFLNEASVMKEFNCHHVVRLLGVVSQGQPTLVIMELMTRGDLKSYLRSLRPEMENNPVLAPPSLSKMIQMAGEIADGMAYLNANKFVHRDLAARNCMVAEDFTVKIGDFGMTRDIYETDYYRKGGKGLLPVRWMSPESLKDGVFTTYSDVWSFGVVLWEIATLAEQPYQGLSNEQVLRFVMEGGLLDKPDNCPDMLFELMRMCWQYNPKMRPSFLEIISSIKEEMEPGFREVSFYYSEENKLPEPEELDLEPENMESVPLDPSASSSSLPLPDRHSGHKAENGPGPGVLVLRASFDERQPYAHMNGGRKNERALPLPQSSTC
T2 sequence (P08069 31-1367): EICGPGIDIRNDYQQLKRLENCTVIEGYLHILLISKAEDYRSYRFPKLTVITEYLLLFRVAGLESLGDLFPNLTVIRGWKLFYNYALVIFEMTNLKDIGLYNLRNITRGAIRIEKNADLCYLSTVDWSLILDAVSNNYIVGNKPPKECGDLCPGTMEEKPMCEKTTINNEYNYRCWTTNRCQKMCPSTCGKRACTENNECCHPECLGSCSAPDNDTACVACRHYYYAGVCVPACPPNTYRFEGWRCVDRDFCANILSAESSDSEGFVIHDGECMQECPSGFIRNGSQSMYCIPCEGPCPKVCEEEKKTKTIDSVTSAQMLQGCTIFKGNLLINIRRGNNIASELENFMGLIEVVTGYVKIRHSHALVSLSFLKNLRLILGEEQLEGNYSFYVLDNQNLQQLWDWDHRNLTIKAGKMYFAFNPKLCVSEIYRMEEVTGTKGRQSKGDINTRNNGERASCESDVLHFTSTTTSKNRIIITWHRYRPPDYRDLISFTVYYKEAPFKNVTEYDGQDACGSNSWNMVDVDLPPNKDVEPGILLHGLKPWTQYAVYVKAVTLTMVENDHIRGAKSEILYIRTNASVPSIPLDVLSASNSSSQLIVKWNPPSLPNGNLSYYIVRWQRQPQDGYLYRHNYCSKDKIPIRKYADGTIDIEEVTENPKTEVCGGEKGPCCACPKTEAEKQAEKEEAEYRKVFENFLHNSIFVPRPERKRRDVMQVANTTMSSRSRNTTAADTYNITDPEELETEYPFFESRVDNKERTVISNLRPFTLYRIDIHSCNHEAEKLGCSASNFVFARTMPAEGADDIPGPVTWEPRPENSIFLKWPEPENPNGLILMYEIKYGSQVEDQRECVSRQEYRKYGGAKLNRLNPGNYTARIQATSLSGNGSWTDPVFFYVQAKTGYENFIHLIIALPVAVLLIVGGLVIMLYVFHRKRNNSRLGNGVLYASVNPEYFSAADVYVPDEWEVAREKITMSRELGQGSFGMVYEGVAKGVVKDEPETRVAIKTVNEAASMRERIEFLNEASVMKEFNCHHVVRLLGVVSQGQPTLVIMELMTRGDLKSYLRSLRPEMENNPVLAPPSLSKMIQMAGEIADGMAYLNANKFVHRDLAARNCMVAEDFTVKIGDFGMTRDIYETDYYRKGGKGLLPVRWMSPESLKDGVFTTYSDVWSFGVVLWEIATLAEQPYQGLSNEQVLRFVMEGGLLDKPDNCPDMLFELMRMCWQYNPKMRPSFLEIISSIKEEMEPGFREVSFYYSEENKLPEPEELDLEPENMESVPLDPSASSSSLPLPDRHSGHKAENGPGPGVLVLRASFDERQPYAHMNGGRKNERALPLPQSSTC
ALK, sequence (Q9UM73 19-1620): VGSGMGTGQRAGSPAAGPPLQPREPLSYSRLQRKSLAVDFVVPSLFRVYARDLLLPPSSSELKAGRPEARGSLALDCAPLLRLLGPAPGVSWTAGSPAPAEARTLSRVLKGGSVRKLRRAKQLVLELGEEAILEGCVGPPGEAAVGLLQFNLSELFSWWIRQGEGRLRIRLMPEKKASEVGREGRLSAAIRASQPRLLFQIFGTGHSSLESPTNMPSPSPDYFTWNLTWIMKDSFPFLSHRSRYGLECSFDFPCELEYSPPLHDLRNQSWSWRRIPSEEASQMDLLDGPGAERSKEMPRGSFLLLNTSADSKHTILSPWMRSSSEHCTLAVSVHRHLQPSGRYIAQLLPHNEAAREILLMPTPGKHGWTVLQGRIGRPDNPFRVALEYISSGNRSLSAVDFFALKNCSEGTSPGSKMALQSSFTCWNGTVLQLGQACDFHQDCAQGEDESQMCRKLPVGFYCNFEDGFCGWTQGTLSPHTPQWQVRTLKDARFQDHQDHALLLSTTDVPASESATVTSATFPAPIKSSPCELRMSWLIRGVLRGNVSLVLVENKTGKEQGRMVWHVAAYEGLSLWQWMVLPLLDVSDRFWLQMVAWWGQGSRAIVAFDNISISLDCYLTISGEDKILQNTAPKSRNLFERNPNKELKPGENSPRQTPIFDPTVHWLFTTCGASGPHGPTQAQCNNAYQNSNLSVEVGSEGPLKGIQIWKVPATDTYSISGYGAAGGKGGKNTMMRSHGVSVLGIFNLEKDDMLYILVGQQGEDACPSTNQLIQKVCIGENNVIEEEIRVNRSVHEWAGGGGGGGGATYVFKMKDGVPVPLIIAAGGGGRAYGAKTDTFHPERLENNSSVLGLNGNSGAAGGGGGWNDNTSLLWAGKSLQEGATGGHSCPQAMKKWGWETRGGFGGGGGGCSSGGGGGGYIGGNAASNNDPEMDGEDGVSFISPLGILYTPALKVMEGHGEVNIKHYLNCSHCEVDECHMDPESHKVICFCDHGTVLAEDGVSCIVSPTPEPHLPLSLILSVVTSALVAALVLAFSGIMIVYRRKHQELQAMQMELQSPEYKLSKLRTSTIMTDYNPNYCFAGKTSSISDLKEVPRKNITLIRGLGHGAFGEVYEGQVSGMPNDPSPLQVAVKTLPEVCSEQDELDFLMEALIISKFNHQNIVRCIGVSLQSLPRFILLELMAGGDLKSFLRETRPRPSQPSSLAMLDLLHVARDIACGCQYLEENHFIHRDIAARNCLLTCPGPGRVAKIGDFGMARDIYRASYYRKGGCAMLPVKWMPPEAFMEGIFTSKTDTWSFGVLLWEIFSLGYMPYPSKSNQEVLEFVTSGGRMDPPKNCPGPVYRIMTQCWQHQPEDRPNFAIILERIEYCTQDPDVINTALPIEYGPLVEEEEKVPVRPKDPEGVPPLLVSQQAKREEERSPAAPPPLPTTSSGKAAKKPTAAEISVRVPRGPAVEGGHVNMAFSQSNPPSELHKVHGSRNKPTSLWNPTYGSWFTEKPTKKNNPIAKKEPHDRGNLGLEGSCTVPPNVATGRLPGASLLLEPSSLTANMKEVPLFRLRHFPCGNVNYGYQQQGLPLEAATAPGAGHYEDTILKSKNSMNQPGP

| SMILES | IC50 [1] [nM] | IC50 [2] [nM] | IC50 [3] [nM] | IC50 [4] [nM] | IC50 [5] [nM] | IC50 [6] [nM] | IC50 [7] [nM] |
| --- | --- | --- | --- | --- | --- | --- | --- |
| COc1cc(N2CCN(C(C)C)CC2)ccc1Nc1nc(Nc2ccc(F)cc2C(=O)NCCO)c2cc[nH]c2n1 [Example 66, 5-fluoro-N-(2-hydroxyethyl)-2-[(2-{[4-[4-(1-methylethyl)-1-piperazinyl]-2-(methyloxy)phenyl]amino}-1H-pyrrolo[2,3-d]pyrimidin-4-yl)amino]benzamide] | > 500 | 1.26 to 3.98 | > 500 | 5.01 to 200 | < 250 | – | – |
| CNC(=O)c1cc(F)ccc1Nc1nc(Nc2ccc(N3CCN(C(C)C)CC3)cc2OC)nc2[nH]ccc12 [Example 65, 5-fluoro-N-methyl-2-[(2-{[4-[4-(1-methylethyl)-1-piperazinyl]-2-(methyloxy)phenyl]amino}-1H-pyrrolo[2,3-d]pyrimidin-4-yl)amino]benzamide] | 100 to 500 | 1.26 to 3.98 | 100 to 500 | 1.26 to 3.98 | 250 to 1000 | – | – |
| CNC(=O)c1c(F)cccc1Nc1nc(Nc2cc3c(cc2OC)C(C)(C)CC(=O)N3)nc2[nH]ccc12 [Example 228, 2-[(2-{[4,4-dimethyl-6-(methyloxy)-2-oxo-1,2,3,4-tetrahydro-7-quinolinyl]amino}-1H-pyrrolo[2,3-d]pyrimidin-4-yl)amino]-6-fluoro-N-methylbenzamide] | – | 1.26 to 3.98 | – | 1.26 to 3.98 | > 1000 | 250 to 1000 | 1.26 to 3.98 |
| COc1cc2c(cc1Nc1nc(Nc3cccc(F)c3C(N)=O)c3cc[nH]c3n1)NC(=O)CC2(C)C [Example 227, 2-[(2-{[4,4-dimethyl-6-(methyloxy)-2-oxo-1,2,3,4-tetrahydro-7-quinolinyl]amino}-1H-pyrrolo[2,3-d]pyrimidin-4-yl)amino]-6-fluorobenzamide] | – | 1.26 to 3.98 | – | 1.26 to 3.98 | 250 to 1000 | 250 to 1000 | 0.251 to 1 |
| COc1cc2c(cc1Nc1nc(Nc3cc(F)cc(F)c3C(N)=O)c3cc[nH]c3n1)N(C(=O)[C@@H]1CCCN1C)CC2 [Example 148, 2,4-difluoro-6-[(2-{[5-(methyloxy)-1-(1-methyl-L-prolyl)-2,3-dihydro-1H-indol-6-yl]amino}-1H-pyrrolo[2,3-d]pyrimidin-4-yl)amino]benzamide] | – | 5.01 to 200 | – | 1.26 to 3.98 | 250 to 1000 | 250 to 1000 | 1.26 to 3.98 |
| COc1cc2c(cc1Nc1nc(Nc3cc(Cl)cc(F)c3C(N)=O)c3cc[nH]c3n1)N(C(=O)CN(C)C)CCC2 [Example 171, 4-chloro-2-[(2-{[1-(N,N-dimethylglycyl)-6-(methyloxy)-1,2,3,4-tetrahydro-7-quinolinyl]amino}-1H-pyrrolo[2,3-d]pyrimidin-4-yl)amino]-6-fluorobenzamide] | – | 0.251 to 1 | – | – | < 250 | < 250 | – |
| CNC(=O)c1c(F)cccc1Nc1nc(Nc2cc3c(cc2OC)CCN3C(=O)CN(C)C)nc2[nH]ccc12 [Example 116, 2-[(2-{[1-(N,N-dimethylglycyl)-5-(methyloxy)-2,3-dihydro-1H-indol-6-yl]amino}-1H-pyrrolo[2,3-d]pyrimidin-4-yl)amino]-6-fluoro-N-methylbenzamide] | – | – | – | – | 250 to 1000 | < 250 | – |
| CNC(=O)c1c(F)cccc1Nc1nc(Nc2cc3c(cc2C)CCCN3C(=O)CN(C)C)nc2[nH]ccc12 [Example 247, 2-[(2-{[1-(N,N-dimethylglycyl)-6-methyl-1,2,3,4-tetrahydro-7-quinolinyl]amino}-1H-pyrrolo[2,3-d]pyrimidin-4-yl)amino]-6-fluoro-N-methylbenzamide] | – | – | – | 5.01 to 200 | > 1000 | 250 to 1000 | – |
| CNC(=O)c1c(F)cc(Cl)cc1Nc1nc(Nc2cc3c(cc2OC)CCCN3C(=O)CN(C)C)nc2[nH]ccc12 [Example 172, 4-chloro-2-[(2-{[1-(N,N-dimethylglycyl)-6-(methyloxy)-1,2,3,4-tetrahydro-7-quinolinyl]amino}-1H-pyrrolo[2,3-d]pyrimidin-4-yl)amino]-6-fluoro-N-methylbenzamide] | – | 1.26 to 3.98 | – | – | 250 to 1000 | < 250 | – |
| CCc1cc(N2CCN(C(C)C)CC2)ccc1Nc1nc(Nc2cc(F)ccc2C(N)=O)c2cc[nH]c2n1 [Example 69, 2-{[2-({2-ethyl-4-[4-(1-methylethyl)-1-piperazinyl]phenyl}amino)-1H-pyrrolo[2,3-d]pyrimidin-4-yl]amino}-4-fluorobenzamide] | 100 to 500 | – | 100 to 500 | 1.26 to 3.98 | 250 to 1000 | – | 1.26 to 3.98 |
| COc1cc(N2CCOC[C@@H]2C)ccc1Nc1nc(Nc2cc(F)cc(F)c2C(N)=O)c2cc[nH]c2n1 [Example 90, 2,4-difluoro-6-[(2-{[4-[(3S)-3-methyl-4-morpholinyl]-2-(methyloxy)phenyl]amino}-1H-pyrrolo[2,3-d]pyrimidin-4-yl)amino]benzamide] | < 100 | – | < 100 | 1.26 to 3.98 | 250 to 1000 | – | 1.26 to 3.98 |
| CCCN1CCCC(c2ccc(Nc3nc(Nc4cccc(OC)c4C(N)=O)c4cc[nH]c4n3)c(OC)c2)C1 (centres unmarked) [Example 36, 2-(methyloxy)-6-[(2-{[2-(methyloxy)-4-(1-propyl-3-piperidinyl)phenyl]amino}-1H-pyrrolo[2,3-d]pyrimidin-4-yl)amino]benzamide] | 100 to 500 | 1.26 to 3.98 | 100 to 500 | 1.26 to 3.98 | – | – | 1.26 to 3.98 |
| Cc1ccc(NC(=O)CN2CCCC2)cc1Nc1nc(Nc2ccccc2C(N)=O)c2cc[nH]c2n1 [Example 14, 2-{[2-({2-methyl-5-[(1-pyrrolidinylacetyl)amino]phenyl}amino)-1H-pyrrolo[2,3-d]pyrimidin-4-yl]amino}benzamide] | 100 to 500 | 1.26 to 3.98 | 100 to 500 | 1.26 to 3.98 | – | – | 0.251 to 1 |
| COc1cc2c(cc1Nc1nc(Nc3cccc(F)c3C(N)=O)c3cc[nH]c3n1)N(C(=O)CN(C)C)[C@H](C)C2 [Example 248, 2-[(2-{[(2R)-1-(N,N-dimethylglycyl)-2-methyl-5-(methyloxy)-2,3-dihydro-1H-indol-6-yl]amino}-1H-pyrrolo[2,3-d]pyrimidin-4-yl)amino]-6-fluorobenzamide] | 100 to 500 | 5.01 to 200 | 100 to 500 | 5.01 to 200 | – | – | 5.01 to 158 |
| CNC(=O)c1c(F)cccc1Nc1nc(Nc2cc3c(cc2OC)C(C)(C)CCN3C(=O)CN(C)C)nc2[nH]ccc12 [Example 226, 2-[(2-{[1-(N,N-dimethylglycyl)-4,4-dimethyl-6-(methyloxy)-1,2,3,4-tetrahydro-7-quinolinyl]amino}-1H-pyrrolo[2,3-d]pyrimidin-4-yl)amino]-6-fluoro-N-methylbenzamide] | – | – | – | 0.251 to 1 | 250 to 1000 | < 250 | 0.251 to 1 |
